≈ marks a conversion by molar mass, not a printed value.
Tests used:
[1] = system: herpes simplex virus type 2 (HSV-2); experiment: HSV-2 plaque-reduction on mouse embryo fibroblast monolayers; assay type: cell-based; details: concentration which inhibited the number of plaques by 50%, interpolated, HSV-2 (Curtis strain), ~80 pfu, 2 days at 37° C.; for IC50: Human alphaherpesvirus 2, Fibroblast, 48 h, read-out: MIC
Description: The activity of the compounds of the invention against herpes simplex virus type 2 (HSV-2) was determined by measuring plaque-reduction activity on mouse embryo fibroblast monolayers. Two-day-old monolayers of Balb/c or ICR mouse embryo fibroblasts (MEF) were infected with approximately 80 pfu (plaque forming units) of HSV-2 (Curtis strain) in the presence of various concentrations of the test compounds. After a 1 hour absorption period at 37° C. and 2% CO2, the inoculum was removed and an overlay containing equal parts of 2X MS medium supplemented with 10% fetal calf serum (FSC) and 1% molten Seakem agarose was added to cell monolayers. Both the inocula and the overlay mixtures contained 1:200 dilutions of the test compound made from stock dilutions in dimethylsulfoxide. After incubation at 37° C. and 2% CO2 for 2 days, the monolayers were fixed with 5% glutaraldehyde and stained with 0.25% aqueous crystal violet. The plaques were quantitated by visual inspection. The minimum inhibitory concentration (MIC) for a compound was defined as the concentration in micrograms per milliliter (μg/ml) which inhibited the number of plaques by 50%. The MIC was calculated by interpolation.

[2] = system: phenylephrine-contracted aortic ring preparation; experiment: vasodilator activity in phenylephrine-contracted aortic ring preparation from the spontaneously hypertensive rat (SHR); details: 50% of maximal relaxation induced by papaverine (200 μM), contracted with 1 μM phenylephrine
Description: Aortic ring preparations from SHR are suspended in buffered physiological saline and induced to contract by addition of 1 μM phenylephrine, a selective α1 -adrenergic agonist. When a sustained contraction is obtained, the test compound is added cumulatively in ascending concentrations beginning at 1 μM. At the end of the addition of the test compound, a 200 μM concentration of papaverine is added to the organ bath for induction of a 100% vasodilator response. Percent relaxation by the test compound is expressed as a percent of maximal relaxation induced by papaverine. […] By this procedure, EC50 values for certain compounds of the invention were determined with the following results: […]

EC50 [2] [µM] | Compound | IC50 [1] [µg/mL] | MIC [1] [µg/mL]
 | COc1ccc2cc3c(N)nn(CCN4CCOCC4)c3nc2c1 [Example 15, 7-Methoxy-1-[2-(4-morpholinyl)ethyl]-1H-pyrazolo[3,4-b]quinolin-3-amine] | 44 (≈ 134 µM) | 
 | COc1ccc2cc3c(C#N)nn(CCN(C)C)c3nc2c1 [Example 38, 1[2-(Dimethylamino)ethyl]-7-methoxy-1H-pyrazolo[3,4-b]quinoline-3-carbonitrile] | 0.82 (≈ 2.78 µM) | 
31 | COc1ccc2nc3[nH]nc(N)c3cc2c1 [1(d), 6-Methoxy-1H-pyrazolo[3,4-b]quinolin-3-amine] | 1.5 (≈ 7 µM) | 
 | CCCn1nc(N)c2cc3ccc(OC)cc3nc21 [Example 9, 7-Methoxy-1H-1-propylpyrazolo[3,4-b]quinolin-3-amine] | 5.3 (≈ 20.7 µM) | 
21 | COc1ccc2cc3c(N)n[nH]c3nc2c1 [3(d), 7-Methoxy-1H-pyrazolo[3,4-b]quinolin-3-amine] | 4.3 (≈ 20.1 µM) | 
57 | Cn1nc(N)c2cc3ccc(O)cc3nc21 [Example 12, 3-Amino-1-methyl-1H-pyrazolo[3,4-b]quinolin-7-ol] |  | 
 | COc1ccc2nc3c(cc2c1)c(Br)nn3CCN(C)C [Example 36, 3-Bromo-1-[2-(dimethylamino)ethyl]-6-methoxy-1H-pyrazolo[3,4-b]quinoline] | 4.3 (≈ 12.3 µM) | 
 | COc1ccc2cc3c(Cl)nn(CC(C)N(C)C)c3nc2c1 (stereo not drawn) [Example 45, 3-Chloro-1-[2-(dimethylamino)-2-methylethyl]-7-methoxy-1H-pyrazolo[3,4-b]quinoline] | 0.88 (≈ 2.76 µM) | 
71 | CCOC(=O)Cn1nc(N)c2cc3ccc(OC)cc3nc21 [Example 19, Ethyl 3-amino-7-methoxy-1H-pyrazolo[3,4-b]quinolin-1-acetate] | 12 (≈ 40 µM) | 
 | CNC(C)Cn1nc(Cl)c2cc3ccc(OC)cc3nc21 (stereo not drawn) [Example 46, 3-Chloro-1-[2-(methylamino)-2-methylethyl]-7-methoxy-1H-pyrazolo[3,4-b]quinoline] | 3.7 (≈ 12.1 µM) | 
 | COc1ccc2cc3c(Br)nn(CCN(C)C)c3nc2c1 [Example 37, 3-Bromo-1-[2-(dimethylamino)ethyl]-7-methoxy-1H-pyrazolo[3,4-b]quinoline] | 0.97 (≈ 2.78 µM) | 
40 | CCN(CC)CCn1nc(N)c2cc3cc(OC)ccc3nc21 [Example 16, 1-[2-(Diethylamino)ethyl]-6-methoxy-1H-pyrazolo[3,4-b]quinolin-3-amine] |  | 
33 | CCN(CC)CCn1nc(N)c2cc3ccc(O)cc3nc21 [Example 23] | 39 (≈ 130 µM) | 
 | CNCCn1nc(Br)c2cc3ccc(OC)cc3nc21 [Example 41, 3-Bromo-7-methoxy-1-(2-methylaminoethyl)-1H-pyrazolo[3,4-b]quinoline] | 0.72 (≈ 2.15 µM) | 
87 | Nc1n[nH]c2nc3cc(O)ccc3cc12 [Example 13, 3-Amino-1H-pyrazolo[3,4-b]quinolin-7-ol] | 13 (≈ 64.9 µM) | 
 | CNCCn1nc(N)c2cc3cc(OC)ccc3nc21 [Example 27, 1-[2-(Methylamino)ethyl]-6-methoxy-1H-pyrazolo[3,4-b]quinolin-3-amine] | 13 (≈ 47.9 µM) | 
22 | CCN(CC)CCn1nc(N)c2cc3ccc(OC)cc3nc21 [Example 22, 1-[2-(Diethylamino)ethyl]-7-methoxy-1H-pyrazolo[3,4-b]quinolin-3-amine] | 23 (≈ 73.4 µM) | 
18 | COc1cc2cc3c(N)n[nH]c3nc2cc1OC [4(d), 6,7-Dimethoxy-1H-pyrazolo[3,4-b]quinolin-3-amine] |  | 
25 | Nc1n[nH]c2nc3ccc(O)cc3cc12 [Example 14, 3-Amino-1H-pyrazolo[3,4-b]quinolin-6-ol] |  | 
 | CCOc1ccc2cc3c(N)n[nH]c3nc2c1 [5(d), 7-Ethoxy-1H-pyrazolo[3,4-b]quinolin-3-amine] | 17 (≈ 74.5 µM) | 

EC50 [2] [µM] | Compound | IC50 [1] [µg/mL] | MIC [1] [µg/mL]
 | COc1ccc2nc3c(cc2c1)c(Cl)nn3C [Example 31, 3-Chloro-6-methoxy-1-methyl-1H-pyrazolo[3,4-b]quinoline] | 18 (≈ 72.7 µM) | 
 | CN(C)CCn1nc(N)c2cc3ccc(O)cc3nc21 [Example 24, 3-Amino-1-[2-(dimethylamino)ethyl]-1H-pyrazolo[3,4-b]quinolin-7-ol] | 13 (≈ 47.9 µM) | 
91 | COc1ccc2nc3c(cc2c1)c(N)nn3CCCN(C)C [Example 17, 1-[3-(Dimethylamino)propyl]-6-methoxy-1H-pyrazolo[3,4-b]quinolin-3-amine] | 78 (≈ 261 µM) | 
 | COc1ccc2cc3c(N)nn(CN(C)C)c3nc2c1 [Example 30, 1-[(Dimethylamino)methyl]-7-methoxy-1H-pyrazolo[3,4-b]quinolin-3-amine] | 2.6 (≈ 9.58 µM) | 
 | COc1ccc2cc3c(N)nn(CC(C)N(C)C)c3nc2c1 (stereo not drawn) [Example 44a, 1-[2-(dimethylamino)-2-methylethyl]-7-methoxy-1H-pyrazolo[3,4-b]quinolin-3-amine] | 11 (≈ 36.7 µM) | 
 | COc1ccc2nc3c(cc2c1)c(C#N)nn3C [Example 33, 6-Methoxy-1-methyl-1H-pyrazolo[3,4-b]quinoline-3-carbonitrile] | 42 (≈ 176 µM) | 
 | 7-Methoxy-1-methyl-1H-pyrazolo[3,4-b]quinoline-3-methanamine [Example 34] |  | 15
43 | COc1ccc2cc3c(N)nn(C)c3nc2c1 [Example 7, 7-Methoxy-1-methyl-1H-pyrazolo[3,4-b]quinolin-3-amine] | 6.4 (≈ 28 µM) | 
25 | COc1ccc2cc3c(N)nn(CCN(C)C)c3nc2c1 [Example 18, 1-[2-(Dimethylamino)ethyl]-7-methoxy-1H-pyrazolo[3,4-b]quinolin-3-amine] | 12 (≈ 42.1 µM) | 
70 | CCNC(=O)Cn1nc(N)c2cc3ccc(OC)cc3nc21 [Example 28, 3-Amino-7-methoxy-N-ethyl-1H-pyrazolo[3,4-b]quinolin-1-acetamide] |  | 
9 | COc1ccc2nc3c(cc2c1)c(C(N)=O)nn3C [Example 35, 6-Methoxy-1-methyl-1H-pyrazolo[3,4-b]quinoline-3-carboxamide] | 7 (≈ 27.3 µM) | 
 | CCNCCn1nc(N)c2cc3ccc(OC)cc3nc21 [Example 29, 1-[2-(Ethylamino)ethyl]-7-methoxy-1H-pyrazolo[3,4-b]quinolin-3-amine] | 6.7 (≈ 23.5 µM) | 
38 | COc1ccc2nc3c(cc2c1)c(N)nn3CCN(C)C [Example 21, 1-[2-(Dimethylamino)ethyl]-6-methoxy-1H-pyrazolo[3,4-b]quinolin-3-amine] | 24 (≈ 84.1 µM) | 
 | COc1ccc2cc3c(Cl)nn(CCN(C)C)c3nc2c1 [Example 40, 3-Chloro-1-(2-dimethylaminoethyl)-7-methoxy-1H-pyrazolo[3,4-b]quinoline] | 0.67 (≈ 2.2 µM) | 
 | COC(=O)c1nn(CCN(C)C)c2nc3cc(OC)ccc3cc12 [Example 39, Methyl 1-[2-(dimethylamino)ethyl]-7-methoxy-1H-pyrazolo[3,4-b]quinoline-3-carboxylate] | 2.3 (≈ 7 µM) | 
 | CCn1nc(N)c2cc3ccc(OC)cc3nc21 [Example 10, 1-Ethyl-7-methoxy-1H-pyrazolo[3,4-b]quinolin-3-amine] | 7.8 (≈ 32.2 µM) | 
 | COc1ccc2cc3c(N)nn(-c4ccccc4)c3nc2c1 [Example 11, 7-Methoxy-1-phenyl-1H-pyrazolo[3,4-b]quinolin-3-amine] | 19 (≈ 65.4 µM) | 
26 | Nc1n[nH]c2nc3ccccc3cc12 [2(d), 1H-Pyrazolo[3,4-b]quinolin-3-amine] |  | 
116 | COc1ccc2nc3c(cc2c1)c(N)nn3CC(=O)N(C)C [Example 25, 3-Amino-6-methoxy-N,N-dimethyl-1H-pyrazolo[3,4-b]quinolin-1-acetamide] |  | 
 | COc1cccc2nc3[nH]nc(N)c3cc12 [6(d), 5-Methoxy-1H-pyrazolo[3,4-b]quinolin-3-amine] | 13 (≈ 60.7 µM) | 

Source: patent US4920128A, “Pyrazolo[3,4-b]quinolines and their use as antiviral agents” (Sterling Drug Inc., priority 1988, dated 1990)
